Patent US6512000B1, “Aminocarbonyl-substituted benzimidazoles having tryptase-inhibitory activity” (Boehringer Ingelheim Pharma KG, priority 1999, dated 2003)
Structures can show the parent of a compound that is named as a salt.

Target: T1, rh beta tryptase (Homo sapiens, UniProt P20231)
T1 construct: purchased Promega
Experiment: Tryptase inhibition test (cleavage of N-p-tosyl-Gly-Pro-Lys-para-nitroaniline, p-nitroaniline measured at 405 nm)
Assay type: biochemical
Conditions: pH 7.4, 37° C.; for inhibition at 10 µM / % Inhibition (10 μM): inhibition of rh beta tryptase at 10 μM test substance, substrate N-p-tosyl-Gly-Pro-Lys-para-nitroaniline 0.6 mM, 5 minutes; for IC50: concentration at which 50% of the tryptase enzyme activity is inhibited, substrate 0.6 mM
Procedure: The compounds according to the invention are characterised by their tryptase-inhibiting activity. This ability to inhibit tryptase was investigated using the test described below.
The measurement is carried out in Tris HCl buffer (100 mM), which additionally contains calcium (5 mM) and heparin ([…]), at pH 7.4. The standard used is rh beta tryptase which may be obtained commercially from Promega, for example. The substrate used is N-p-tosyl-Gly-Pro-Lys-para-nitroaniline in a concentration of 0.6 mM. The substrate is digested with tryptase to form p-nitroaniline which can be measured at 405 nm. Usually, an incubation period of 5 minutes and an incubation temperature of 37° C. are chosen. The enzyme activity used is 0.91 U/ml. The measurements are carried out in an Autoanalyser (Cobas Bio) made by Hofmann LaRoche. The potential inhibitory substances are used in concentrations of 10 μM in the screening, the inhibition of the tryptase being given in percent. The IC50 is determined at over 70% inhibition (concentration at which 50% of the enzyme activity is inhibited). After 5 minutes' pre-incubation of the potential inhibitory substances, the substrate is added to start the reaction, the formation of p-nitroaniline being taken as a measurement of the enzyme activity after 5 minutes, after testing the linearity.
The data obtained after the above test has been carried out (% inhibition) are assembled in Table 25 for the compounds according to the invention. The IC50 values obtained for the compounds according to the invention can be found in Table 26.
Table 26 contains the IC50 binding values obtained for the compounds according to the invention. These were measured as described above.

T1 sequence (P20231 31-275): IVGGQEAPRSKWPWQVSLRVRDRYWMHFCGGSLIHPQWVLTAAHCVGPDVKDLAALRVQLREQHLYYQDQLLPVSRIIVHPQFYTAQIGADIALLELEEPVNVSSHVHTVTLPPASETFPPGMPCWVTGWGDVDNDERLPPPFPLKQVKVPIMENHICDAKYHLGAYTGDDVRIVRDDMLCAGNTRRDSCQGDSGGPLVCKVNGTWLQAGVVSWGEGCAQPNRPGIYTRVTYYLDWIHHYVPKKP

Molecule	inhibition at 10 µM [%]	IC50 [nM]	% Inhibition (10 μM) [%]
Cc1ccc(N(CCC(=N)N)C(=O)c2ccc3c(c2)nc(CCc2ccc(C(=N)N)cc2)n3C)cc1 [Example 26, 2-[2-(4-Amidinophenyl)-ethyl]-1-methyl-benzimidazol-5-yl-carboxylic Acid-N-(2-amidinoethyl)-N-(4-methyl-phenyl)-amide-dihydrochloride]		168	
Cn1c(CCc2ccc(C(=N)N)cc2)nc2cc(C(=O)N3CCN(Cc4ccccc4)CC3)ccc21 [Example 55, 2-[2-(4-Amidinophenyl)-ethyl]-1-methyl-benzimidazol-5-yl-carboxylic Acid-[N′-benzyl-piperazide]]		346	
CCCCN(CCCC)CCCn1c(CCc2ccc(C(=N)N)cc2)nc2cc(C(=O)N(Cc3ccc(CN)cc3)Cc3cccc(OC)c3)ccc21 [Example 71, 2-[2-(4-amidinophenyl)ethyl]-1-(3-di-n-butylaminopropyl)-benzimidazol-5-yl-carboxylic acid-N-[4-(amino-methyl)-benzyl]-N-(3-methoxybenzyl)-amide]	58		
2-[2-(4-amidinophenyl)ethyl]-1-(3-ethoxypropyl)-benzimidazol-5-yl-carboxylic acid-N-[4-(amino-methyl)-benzyl]-N-(2-pyridyl)-amide [Example 118]		304	71
CCOc1cccc(N2CCN(C(=O)c3ccc4c(c3)nc(CCc3ccc(C(=N)N)cc3)n4C)CC2)c1 [Example 48, 2-[2-(4-Amidinophenyl)-ethyl]-1-methyl-benzimidazol-5-yl-carboxylic Acid-[N′-(3-ethoxyphenyl)-piperazide]]		147	
2-[2-(4-amidinophenyl)ethyl]-1-cyclopropylmethyl-benzimidazol-5-yl-carboxylic acid-N-[4-(amino-methyl)-benzyl]-N-(2-pyridyl)-amide [Example 122]		515	70
2-[2-(4-amidinophenyl)ethyl]-1-(3-ethoxypropyl)-benzimidazol-5-yl-carboxylic acid-N-[4-(amino-methyl)-benzyl]-N-(3-pyridyl)-amide [Example 134]		231	69
CC(C)Oc1cccc(N2CCN(C(=O)c3ccc4c(c3)nc(CCc3ccc(C(=N)N)cc3)n4C)CC2)c1 [Example 49, 2-[2-(4-Amidinophenyl)-ethyl]-1-methyl-benzimidazol-5-yl-carboxylic Acid-[N ′-(3-isopropyloxyphenyl)-piperazide]]		152	
Cc1ccccc1N1CCN(C(=O)c2ccc3c(c2)nc(CCc2ccc(C(=N)N)cc2)n3C)CC1 [Example 51, 2-[2-(4-Amidinophenyl)-ethyl]-1-methyl-benzimidazol-5-yl-carboxylic Acid-[N′-(2-methylphenyl)-piperazide]]		231	
CN(CCC(=N)N)C(=O)c1ccc2c(c1)nc(CCc1ccc(C(=N)N)cc1)n2C [Example 7, 2-[2-(4-Amidinophenyl)-ethyl]-1-methyl-benzimidazol-5-yl-carboxylic Acid-N-(2-amidinoethyl)-N-methyl-amide-dihydrochloride]		670	
2-[2-(4-amidinophenyl)ethyl]-1-(2-thiophenyl-methyl)-benzimidazol-5-yl-carboxylic acid-N-(2-aminoethyl)-N-(2-pyridyl)-amide [Example 323]			59
Cn1c(CCc2ccc(C(=N)N)cc2)nc2cc(C(=O)N(CCC(=N)N)Cc3cnc4ccccc4c3)ccc21 [Example 8, 2-[2-(4-Amidinophenyl)-ethyl]-1-methyl-benzimidazol-5-yl-carboxylic Acid-N-(2-amidinoethyl)-N-(quinolin-3-yl-methyl)-amide-dihydrochloride]		201	
2-[2-(4-amidinophenyl)ethyl]-1-cyclopropylmethyl-benzimidazol-5-yl-carboxylic acid-N-(2-aminoethyl)-N-(2-pyridyl)-amide [Example 314]		771	61

The next lines start with the values.

inhibition at 10 µM [%]	IC50 [nM]	% Inhibition (10 μM) [%]	Molecule
74			N=C(N)c1ccc(CCc2nc3cc(C(=O)N(Cc4ccccc4)Cc4ccc(CN)cc4)ccc3n2CCCNC(=O)Cc2ccccc2)cc1 [Example 104, 2-[2-(4-amidinophenyl)ethyl]-1-[3-(benzylcarbonylamino)-propyl]-benzimidazol-5-yl-carboxylic acid-N-[4-(amino-methyl)-benzyl]-N-benzyl-amide]
65			CCCCN(CCN)C(=O)c1ccc2c(c1)nc(CCc1ccc(C(=N)N)cc1)n2CCCN1CCN(c2ccccc2C)CC1 [Example 288, 2-[2-(4-amidinophenyl)ethyl]-1-{3-[4-(2-methylphenyl)-piperazin-1-yl]-propyl}-benzimidazol-5-yl-carboxylic acid-N-(2-aminoethyl)-N-n-butyl-amide]
51			Cc1ccc(Cn2c(CCc3ccc(C(=N)N)cc3)nc3cc(C(=O)N(CCCc4ccccc4)Cc4ccc(CN)cc4)ccc32)cc1 [Example 173, 2-[2-(4-amidinophenyl)ethyl]-1-(4-methylbenzyl)-benzimidazol-5-yl-carboxylic acid-N-[4-(amino-methyl)-benzyl]-N-(3-phenylpropyl)-amide]
61	153		CCOCCCn1c(CCc2ccc(C(=N)N)cc2)nc2cc(C(=O)N(Cc3ccc(CN)cc3)Cc3ccc4ccccc4c3)ccc21 [Example 230, 2-[2-(4-amidinophenyl)ethyl]-1-(3-ethoxypropyl)-benzimidazol-5-yl-carboxylic acid-N-[4-(amino-methyl)-benzyl]-N-(2-naphthylmethyl)-amide]
58	364		CCOCCCn1c(CCc2ccc(C(=N)N)cc2)nc2cc(C(=O)N(CCN)Cc3ccc4ccccc4c3)ccc21 [Example 422, 2-[2-(4-amidinophenyl)ethyl]-1-(3-ethoxypropyl)-benzimidazol-5-yl-carboxyiic acid-N-(2-aminoethyl)-N-(2-naphthylmethyl)-amide]
60	292		CCOCCCn1c(CCc2ccc(C(=N)N)cc2)nc2cc(C(=O)N(Cc3ccc(CN)cc3)CC3CCCCC3)ccc21 [Example 150, 2-[2-(4-amidinophenyl)ethyl]-1-(3-ethoxypropyl)-benzimidazol-5-yl-carboxylic acid-N-[4-(amino-methyl)-benzyl]-N-cyclohexylmethyl-amide]
59			CCOCCCn1c(CCc2ccc(C(=N)N)cc2)nc2cc(C(=O)N(Cc3ccc(CN)cc3)Cc3ccc(C(=O)OC)cc3)ccc21 [Example 438, 2-[2-(4-amidinophenyl)ethyl]-1-(3-ethoxypropyl)-benzimidazol-5-yl-carboxylic acid-N-[4-(amino-methyl)-benzyl]-N-[4-(methoxycarbonyl)-benzyl]-amide]
59			CCCCN(CCCC)CCCn1c(CCc2ccc(C(=N)N)cc2)nc2cc(C(=O)N(CCN)CCCc3ccccc3)ccc21 [Example 359, 2-[2-(4-amidinophenyl)ethyl]-1-(3-di-n-butylaminopropyl)-benzimidazol-5-yl-carboxylic acid-N-(2-aminoethyl)-N-(3-phenylpropyl)-amide]
65			N=C(N)c1ccc(CCc2nc3cc(C(=O)N(Cc4ccc(CN)cc4)Cc4ccccc4F)ccc3n2CCCNC(=O)Cc2ccccc2)cc1 [Example 216, 2-[2-(4-amidinophenyl)ethyl]-1-[3-(benzylcarbonylamino)-propyl]-benzimidazol-5-yl-carboxylic acid-N-[4-(amino-methyl)-benzyl]-N-(2-fluorobenzyl)-amide]
69			N=C(N)c1ccc(CCc2nc3cc(C(=O)N(Cc4ccc(CN)cc4)Cc4cccc(C(F)(F)F)c4)ccc3n2CCCNC(=O)Cc2ccccc2)cc1 [Example 200, 2-[2-(4-amidinophenyl)ethyl]-1-[3-(benzylcarbonylamino)-propyl]-benzimidazol-5-yl-carboxylic acid-N-[4-(amino-methyl)-benzyl]-N-(3-trifluoromethylbenzyl)-amide]
		55	N=C(N)c1ccc(CCc2nc3cc(C(=O)N(CCN)Cc4ccc(Cl)cc4)ccc3n2Cc2cccs2)cc1 [Example 387, 2-[2-(4-amidinophenyl)ethyl]-1-(2-thiophenyl-methyl)-benzimidazol-5-yl-carboxylic acid-N-(2-aminoethyl)-N-(4-chlorbenzyl)-amide]
65	344		N=C(N)c1ccc(CCc2nc3cc(C(=O)N(Cc4ccccc4)Cc4ccc(CN)cc4)ccc3n2CCc2ccccc2)cc1 [Example 107, 2-[2-(4-amidinophenyl)ethyl]-1-(2-phenylethyl)-benzimidazol-5-yl-carboxylic acid-N-[4-(amino-methyl)-benzyl]-N-benzyl-amide]
		63	N=C(N)c1ccc(CCc2nc3cc(C(=O)N(Cc4ccc(Cl)cc4)Cc4ccc(CN)cc4)ccc3n2CCc2ccccc2)cc1 [Example 187, 2-[2-(4-amidinophenyl)ethyl]-1-(2-phenylethyl)-benzimidazol-5-yl-carboxylic acid-N-[4-(amino-methyl)-benzyl]-N-(4-chlorbenzyl)-amide]
